Results: article PMC6199744, “Development of Chemical Proteomics for the Folateome and Analysis of the Kinetoplastid Folateome” (ACS Infectious Diseases, 2018)
Read-outs that look alike come from different tables or passages of the source.

Columns and labels:
Format in all cases: binding
[1] = biological target: T1, HeLa cell extract proteins (Homo sapiens, UniProt P16615)
T1 construct: endogenous in cells; host or cells: HeLa cell extract

[2] = biological target: T2, HeLa cell extract proteins (Homo sapiens, UniProt Q01628)
T2 construct: endogenous in cells; host or cells: HeLa cell extract
T2 sequence (Q01628 whole entry): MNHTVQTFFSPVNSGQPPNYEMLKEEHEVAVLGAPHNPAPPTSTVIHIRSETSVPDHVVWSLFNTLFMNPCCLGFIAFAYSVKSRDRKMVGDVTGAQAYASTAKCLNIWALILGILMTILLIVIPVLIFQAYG

[3] = biological target: T3, HeLa cell extract proteins (Homo sapiens, UniProt Q63HN8)
T3 construct: endogenous in cells; host or cells: HeLa cell extract

[4] = biological target: T4, HeLa cell extract proteins (Homo sapiens, UniProt Q9UI12)
T4 construct: endogenous in cells; host or cells: HeLa cell extract
T4 sequence (Q9UI12 whole entry): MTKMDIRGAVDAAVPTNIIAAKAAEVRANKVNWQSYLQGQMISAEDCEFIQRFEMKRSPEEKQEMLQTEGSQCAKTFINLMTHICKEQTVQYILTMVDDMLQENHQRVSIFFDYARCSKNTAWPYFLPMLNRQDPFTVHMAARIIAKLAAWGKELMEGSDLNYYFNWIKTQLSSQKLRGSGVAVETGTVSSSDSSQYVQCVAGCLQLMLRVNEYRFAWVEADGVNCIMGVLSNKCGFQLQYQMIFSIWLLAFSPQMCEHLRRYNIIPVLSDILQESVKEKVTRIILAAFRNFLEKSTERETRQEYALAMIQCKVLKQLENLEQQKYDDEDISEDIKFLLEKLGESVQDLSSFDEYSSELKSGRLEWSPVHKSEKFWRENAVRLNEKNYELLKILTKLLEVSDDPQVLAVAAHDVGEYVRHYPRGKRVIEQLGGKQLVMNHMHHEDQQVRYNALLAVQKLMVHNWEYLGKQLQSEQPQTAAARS

[5] = biological target: T5, HeLa cell extract proteins (Homo sapiens, UniProt Q9Y678)
T5 construct: endogenous in cells; host or cells: HeLa cell extract
T5 sequence (Q9Y678 1-874): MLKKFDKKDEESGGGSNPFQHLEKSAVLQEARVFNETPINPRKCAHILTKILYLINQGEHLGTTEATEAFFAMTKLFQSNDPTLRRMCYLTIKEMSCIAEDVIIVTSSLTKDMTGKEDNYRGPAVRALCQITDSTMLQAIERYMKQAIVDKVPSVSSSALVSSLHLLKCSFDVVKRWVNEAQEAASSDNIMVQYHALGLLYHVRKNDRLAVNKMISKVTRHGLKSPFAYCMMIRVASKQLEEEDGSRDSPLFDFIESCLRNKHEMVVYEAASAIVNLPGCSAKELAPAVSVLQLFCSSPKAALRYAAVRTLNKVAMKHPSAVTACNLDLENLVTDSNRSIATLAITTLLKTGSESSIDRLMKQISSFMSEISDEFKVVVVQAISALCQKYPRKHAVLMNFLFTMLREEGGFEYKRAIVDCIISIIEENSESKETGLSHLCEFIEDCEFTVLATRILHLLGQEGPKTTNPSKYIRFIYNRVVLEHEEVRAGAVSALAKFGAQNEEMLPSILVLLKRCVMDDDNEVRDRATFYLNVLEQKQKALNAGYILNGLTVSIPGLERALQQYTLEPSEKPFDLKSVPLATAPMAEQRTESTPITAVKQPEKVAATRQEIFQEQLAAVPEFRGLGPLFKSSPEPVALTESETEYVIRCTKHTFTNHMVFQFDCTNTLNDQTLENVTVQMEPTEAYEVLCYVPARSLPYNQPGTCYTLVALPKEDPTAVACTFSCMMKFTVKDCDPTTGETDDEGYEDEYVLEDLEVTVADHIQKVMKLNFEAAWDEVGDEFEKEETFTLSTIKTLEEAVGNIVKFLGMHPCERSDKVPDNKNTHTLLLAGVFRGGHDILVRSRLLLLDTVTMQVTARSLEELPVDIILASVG

[6] = biological target: T6, HeLa cell extract proteins (Homo sapiens, UniProt Q53GQ0)
T6 construct: endogenous in cells; host or cells: HeLa cell extract
T6 sequence (Q53GQ0 1-312): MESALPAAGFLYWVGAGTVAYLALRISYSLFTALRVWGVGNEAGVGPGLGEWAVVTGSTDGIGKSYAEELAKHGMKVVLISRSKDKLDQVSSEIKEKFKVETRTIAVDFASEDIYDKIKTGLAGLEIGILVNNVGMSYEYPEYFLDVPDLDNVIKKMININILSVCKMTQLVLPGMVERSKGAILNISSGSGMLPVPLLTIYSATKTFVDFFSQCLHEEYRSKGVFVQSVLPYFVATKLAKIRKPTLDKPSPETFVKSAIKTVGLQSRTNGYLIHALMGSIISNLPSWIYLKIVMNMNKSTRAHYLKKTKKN

[7] = biological target: T7, HeLa cell extract proteins (Homo sapiens, UniProt Q13011)
T7 construct: endogenous in cells; host or cells: HeLa cell extract
T7 sequence (Q13011 34-328): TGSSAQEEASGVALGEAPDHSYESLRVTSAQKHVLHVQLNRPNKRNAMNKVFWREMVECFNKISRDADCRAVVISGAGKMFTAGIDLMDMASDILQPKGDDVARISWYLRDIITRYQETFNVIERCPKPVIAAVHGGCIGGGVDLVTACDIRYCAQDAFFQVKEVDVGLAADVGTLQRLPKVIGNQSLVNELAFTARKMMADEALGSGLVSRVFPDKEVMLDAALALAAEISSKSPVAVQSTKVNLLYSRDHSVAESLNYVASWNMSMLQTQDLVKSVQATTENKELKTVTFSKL

[8] = biological target: T8, HeLa cell extract proteins (Homo sapiens, UniProt P05141)
T8 construct: endogenous in cells; host or cells: HeLa cell extract
T8 sequence (P05141 1-298): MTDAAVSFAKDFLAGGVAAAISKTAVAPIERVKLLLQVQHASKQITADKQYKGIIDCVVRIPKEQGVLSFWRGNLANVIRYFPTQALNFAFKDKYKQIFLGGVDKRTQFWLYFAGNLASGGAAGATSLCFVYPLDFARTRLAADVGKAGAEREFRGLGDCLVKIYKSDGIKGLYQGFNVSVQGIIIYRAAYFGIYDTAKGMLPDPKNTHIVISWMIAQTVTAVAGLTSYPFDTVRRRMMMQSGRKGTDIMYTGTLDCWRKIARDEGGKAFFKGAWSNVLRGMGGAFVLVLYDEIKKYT

[9] = biological target: T9, HeLa cell extract proteins (Homo sapiens, UniProt Q13409)
T9 construct: endogenous in cells; host or cells: HeLa cell extract
T9 sequence (Q13409 whole entry): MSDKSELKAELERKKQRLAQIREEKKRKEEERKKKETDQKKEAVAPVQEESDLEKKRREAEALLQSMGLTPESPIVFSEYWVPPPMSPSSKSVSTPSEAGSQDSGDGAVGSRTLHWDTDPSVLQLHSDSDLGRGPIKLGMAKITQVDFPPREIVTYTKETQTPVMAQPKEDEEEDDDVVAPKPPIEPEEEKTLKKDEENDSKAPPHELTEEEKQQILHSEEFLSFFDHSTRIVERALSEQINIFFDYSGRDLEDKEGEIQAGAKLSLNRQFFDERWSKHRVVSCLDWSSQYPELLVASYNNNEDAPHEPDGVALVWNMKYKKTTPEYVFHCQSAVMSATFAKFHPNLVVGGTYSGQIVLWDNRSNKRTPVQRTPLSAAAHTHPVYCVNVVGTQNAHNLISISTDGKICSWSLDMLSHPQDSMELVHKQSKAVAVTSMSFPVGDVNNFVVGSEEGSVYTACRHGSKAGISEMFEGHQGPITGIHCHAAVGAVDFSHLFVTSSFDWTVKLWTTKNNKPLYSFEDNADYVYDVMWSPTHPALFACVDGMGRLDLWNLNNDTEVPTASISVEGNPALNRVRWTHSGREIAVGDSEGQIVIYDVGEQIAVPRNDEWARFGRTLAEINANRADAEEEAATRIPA

[10] = biological target: T10, HeLa cell extract proteins (Homo sapiens, UniProt P63167)
T10 construct: endogenous in cells; host or cells: HeLa cell extract
T10 sequence (P63167 whole entry): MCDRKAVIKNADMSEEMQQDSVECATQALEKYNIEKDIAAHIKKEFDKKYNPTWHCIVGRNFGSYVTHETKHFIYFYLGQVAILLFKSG

[11] = captured protein HSD17B12, HeLa

T1 sequence (P16615 whole entry): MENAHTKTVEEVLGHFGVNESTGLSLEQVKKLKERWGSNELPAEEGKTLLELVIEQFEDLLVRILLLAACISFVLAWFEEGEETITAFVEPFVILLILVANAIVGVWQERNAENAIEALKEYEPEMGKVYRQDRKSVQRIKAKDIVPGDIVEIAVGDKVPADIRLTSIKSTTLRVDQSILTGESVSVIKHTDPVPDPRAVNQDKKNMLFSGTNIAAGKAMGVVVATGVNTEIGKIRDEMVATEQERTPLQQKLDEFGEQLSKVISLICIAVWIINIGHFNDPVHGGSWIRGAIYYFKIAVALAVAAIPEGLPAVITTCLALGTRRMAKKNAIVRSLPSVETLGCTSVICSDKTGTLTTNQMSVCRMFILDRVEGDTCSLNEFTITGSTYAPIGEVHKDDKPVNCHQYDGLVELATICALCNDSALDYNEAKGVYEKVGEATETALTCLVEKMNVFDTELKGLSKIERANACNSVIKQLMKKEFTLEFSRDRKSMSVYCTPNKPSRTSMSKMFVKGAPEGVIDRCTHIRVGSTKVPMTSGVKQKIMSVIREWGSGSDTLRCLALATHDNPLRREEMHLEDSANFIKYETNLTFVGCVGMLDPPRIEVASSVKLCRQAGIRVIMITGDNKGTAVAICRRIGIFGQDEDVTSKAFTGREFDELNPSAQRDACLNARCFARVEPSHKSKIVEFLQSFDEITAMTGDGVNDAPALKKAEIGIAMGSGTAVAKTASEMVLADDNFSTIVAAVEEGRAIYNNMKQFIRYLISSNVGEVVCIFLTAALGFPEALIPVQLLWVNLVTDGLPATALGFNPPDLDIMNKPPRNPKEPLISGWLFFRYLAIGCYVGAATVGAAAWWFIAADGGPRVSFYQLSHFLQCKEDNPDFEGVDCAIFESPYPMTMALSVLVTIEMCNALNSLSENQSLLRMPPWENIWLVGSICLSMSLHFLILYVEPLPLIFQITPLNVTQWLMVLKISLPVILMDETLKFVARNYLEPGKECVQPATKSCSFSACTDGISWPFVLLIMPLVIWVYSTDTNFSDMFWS

Compound	fold changes relative to vehicle control ([1]; HeLa, protein ATP2A2)	fold changes relative to vehicle control ([2]; HeLa, protein IFITM3)	fold changes relative to vehicle control ([3]; HeLa, protein KIAA1618)	fold changes relative to vehicle control ([4]; HeLa, protein ATP6V1H)	fold changes relative to vehicle control ([5]; protein COPG, HeLa)	fold changes relative to vehicle control ([6]; protein HSD17B12, HeLa)	fold changes relative to vehicle control ([7]; HeLa, protein ECH1)	fold changes relative to vehicle control ([8]; HeLa, protein SLC25A5)	fold changes relative to vehicle control ([9]; HeLa, protein DYNC1I2)	fold changes relative to vehicle control ([10]; HeLa, captured protein DYNLL1)	fold changes relative to vehicle control ([2]; captured protein IFITM3, HeLa)	fold changes relative to vehicle control ([3]; protein KIAA1618, HeLa)	fold changes relative to vehicle control [6, 11]	fold changes relative to vehicle control ([8]; captured protein SLC25A5, HeLa)	fold changes relative to vehicle control ([10]; protein DYNLL1, HeLa)	other results
Nc1nc2c(c(=O)[nH]1)N(C=O)C(CNc1ccc(C(=O)N[C@@H](CCC(=O)O)C(=O)O)cc1)CN2 (stereo partly shown) [LEU, leucovorin]	1	1.21	0.87	1.04	0.91	0.78	1.04	0.84	0.9	1.05	–	–	–	–	–	–
NCCCNc1ccc(C(=O)NC(CCC(=O)O)C(=O)O)cc1 (stereo not shown) [compound 7]	0.99	1.3	1	1.01	1.03	1.19	0.99	0.96	0.95	1.18	–	–	–	–	–	–
CCCCCCOc1cccc(Cc2cnc(N)nc2N)c1 [compound 2]	1.12	–	–	1.21	1.39	–	0.91	–	1.13	–	0.65	0.95	0.91	0.9	1.05	–
CCCCCCOc1ccc(Cc2cnc(N)nc2N)cc1 [compound 1]	1.05	–	–	1.24	0.93	–	0.95	–	0.88	–	1.07	0.98	0.87	0.96	1.08	–
Nc1nc2cccc(-c3ccccc3)c2n1Cc1ccc(Cl)c(Cl)c1 [compound 3]	0.98	–	–	1.17	1.14	–	1	–	0.89	–	0.9	1.04	1.15	1.02	0.96	–
NCCOCCOCC(=O)Nc1nc2ncc(CNc3ccc(C(=O)NC(CCC(=O)O)C(=O)O)cc3)nc2c(=O)[nH]1 (stereo not shown) [compound 6]	1.03	1.14	1.21	1.13	1.03	0.96	0.96	0.97	0.93	1.14	–	–	–	–	–	–
Nc1nc2[nH]cc(CCc3ccc(C(=O)N[C@@H](CCC(=O)O)C(=O)O)cc3)c2c(=O)[nH]1 [PTX, pemetrexed]	–	–	–	–	–	–	–	–	–	–	–	–	–	–	–	fold changes relative to vehicle control [1]: 1.03; fold changes relative to vehicle control [2]: 1.32; fold changes relative to vehicle control [3]: 1.01; fold changes relative to vehicle control [4]: 0.99; fold changes relative to vehicle control [5]: 0.95; fold changes relative to vehicle control [6]: 0.91; fold changes relative to vehicle control [7]: 1.01; fold changes relative to vehicle control [8]: 0.9; fold changes relative to vehicle control [9]: 0.94; fold changes relative to vehicle control [10]: 1.06
